# Data published in EP0428423A2, “Aryloxy alkyl benzenes, processes for their preparation and pharmaceutical compositions containing them” (LIPHA S.A., priority 1989, dated 1991).
# Experiments:
# ECHANGEUR D'ANIONS = molecular target: T1, ECHANGEUR D'ANIONS (Homo sapiens, UniProt P02730); assay: Anion exchanger of human erythrocytes; assay type: cell-based, ERYTHROCYTES HUMAINS; conditions: read-out: EFFET SUR L'ECHANGEUR D'ANIONS IC 50
# T1 construct: systèmes de transport du sodium et du potassium des érythrocytes humains; endogenous in cells; host or cells: human erythrocytes
# T1 sequence (P02730 1-911): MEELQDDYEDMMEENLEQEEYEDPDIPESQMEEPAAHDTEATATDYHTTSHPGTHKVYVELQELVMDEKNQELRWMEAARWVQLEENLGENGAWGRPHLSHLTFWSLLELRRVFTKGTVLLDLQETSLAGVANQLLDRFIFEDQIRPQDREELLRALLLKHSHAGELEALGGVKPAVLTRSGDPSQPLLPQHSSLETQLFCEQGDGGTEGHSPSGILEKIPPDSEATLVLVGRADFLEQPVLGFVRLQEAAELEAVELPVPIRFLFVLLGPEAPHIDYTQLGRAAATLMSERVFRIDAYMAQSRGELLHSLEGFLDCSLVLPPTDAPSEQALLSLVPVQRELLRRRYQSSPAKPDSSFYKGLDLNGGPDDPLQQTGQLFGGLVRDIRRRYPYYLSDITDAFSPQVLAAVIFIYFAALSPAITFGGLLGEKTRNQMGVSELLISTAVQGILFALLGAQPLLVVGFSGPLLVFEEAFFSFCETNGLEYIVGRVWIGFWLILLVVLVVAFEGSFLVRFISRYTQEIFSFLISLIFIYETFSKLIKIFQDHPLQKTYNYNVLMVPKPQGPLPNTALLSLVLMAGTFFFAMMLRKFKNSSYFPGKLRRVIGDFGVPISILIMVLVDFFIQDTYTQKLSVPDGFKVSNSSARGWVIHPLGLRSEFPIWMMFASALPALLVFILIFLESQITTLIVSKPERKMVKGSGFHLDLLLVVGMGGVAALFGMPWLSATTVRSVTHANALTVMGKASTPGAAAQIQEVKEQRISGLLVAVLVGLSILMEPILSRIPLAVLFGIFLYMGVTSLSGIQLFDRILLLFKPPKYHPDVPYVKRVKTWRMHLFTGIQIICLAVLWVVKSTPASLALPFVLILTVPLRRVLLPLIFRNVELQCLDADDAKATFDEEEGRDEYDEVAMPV
# From the text: Cet effet a été étudié selon la méthodologie décrite par G. GARAY et coll. dans Naunyn-Schmidberg's Arch. Pharmakol. 334 (1986) 202-209 et dans Bioch. Pharm. 33 (1984) 2013-2020.
# lipoxygénase de soja = molecular target: T2, lipoxygénase de soja (Glycine max, UniProt P08170); assay: Anti-lipoxygenase action on soybean lipoxygenase; assay type: biochemical
# T2 sequence (P08170 1-839): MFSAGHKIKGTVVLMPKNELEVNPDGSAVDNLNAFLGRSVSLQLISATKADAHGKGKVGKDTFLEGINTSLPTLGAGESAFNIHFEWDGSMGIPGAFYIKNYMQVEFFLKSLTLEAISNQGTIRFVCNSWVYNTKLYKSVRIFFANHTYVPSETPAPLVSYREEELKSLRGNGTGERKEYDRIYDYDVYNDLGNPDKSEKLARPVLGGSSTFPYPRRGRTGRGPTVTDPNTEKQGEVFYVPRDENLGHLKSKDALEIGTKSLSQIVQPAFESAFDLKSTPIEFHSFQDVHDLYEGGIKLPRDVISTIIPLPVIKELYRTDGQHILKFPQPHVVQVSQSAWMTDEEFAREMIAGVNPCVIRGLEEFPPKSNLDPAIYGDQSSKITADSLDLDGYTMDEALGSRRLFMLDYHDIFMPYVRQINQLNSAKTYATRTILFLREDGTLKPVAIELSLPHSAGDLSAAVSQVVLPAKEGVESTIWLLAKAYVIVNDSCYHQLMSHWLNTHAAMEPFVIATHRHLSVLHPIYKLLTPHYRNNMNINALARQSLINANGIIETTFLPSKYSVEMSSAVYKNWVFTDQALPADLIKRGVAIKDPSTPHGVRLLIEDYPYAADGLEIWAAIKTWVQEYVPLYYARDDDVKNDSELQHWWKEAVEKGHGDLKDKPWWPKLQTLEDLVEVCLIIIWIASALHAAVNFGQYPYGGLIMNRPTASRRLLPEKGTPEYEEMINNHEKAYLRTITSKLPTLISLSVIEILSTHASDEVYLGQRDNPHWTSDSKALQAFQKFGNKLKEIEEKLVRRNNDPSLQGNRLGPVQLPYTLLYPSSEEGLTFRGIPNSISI
# From the text: L'action anti-lipoxygénase a été étudiée sur la lipoxygénase de soja selon la méthode décrite par W.L SMITH et W.E LANDS (J. Biol. Chem. 247 (1972) 1038-1047)
smiles,measurement,setting,value
Cc1ccc(O)c(CCOc2ccccc2)c1 [ex 36],IC50,ECHANGEUR D'ANIONS,800 nM
same,ACTIVITE ANTI-LIPOXYGENASE IC 50,lipoxygénase de soja,Inactif
